Data taken from BindingDB's records for doi:10.1074/jbc.M113.507756 (University of Otago Christchurch, 2013).

Experiments:
Lactoperoxidase = Lactoperoxidase (Bos taurus, UniProt P80025); assay: LPO/TPO Selectivity Assay
Experimental: (§1) The halogenation activities of LPO (EC 1.11.1.7) and TPO (EC 1.11.1.8) were determined using a modified method of that described previously [Ferrari et al., J. Inorg. Biochem., 68:61-69].

Thyroid peroxidase = target: T1, Thyroid peroxidase (Homo sapiens, UniProt P07202); assay: LPO/TPO Selectivity Assay
T1 sequence (P07202 whole entry): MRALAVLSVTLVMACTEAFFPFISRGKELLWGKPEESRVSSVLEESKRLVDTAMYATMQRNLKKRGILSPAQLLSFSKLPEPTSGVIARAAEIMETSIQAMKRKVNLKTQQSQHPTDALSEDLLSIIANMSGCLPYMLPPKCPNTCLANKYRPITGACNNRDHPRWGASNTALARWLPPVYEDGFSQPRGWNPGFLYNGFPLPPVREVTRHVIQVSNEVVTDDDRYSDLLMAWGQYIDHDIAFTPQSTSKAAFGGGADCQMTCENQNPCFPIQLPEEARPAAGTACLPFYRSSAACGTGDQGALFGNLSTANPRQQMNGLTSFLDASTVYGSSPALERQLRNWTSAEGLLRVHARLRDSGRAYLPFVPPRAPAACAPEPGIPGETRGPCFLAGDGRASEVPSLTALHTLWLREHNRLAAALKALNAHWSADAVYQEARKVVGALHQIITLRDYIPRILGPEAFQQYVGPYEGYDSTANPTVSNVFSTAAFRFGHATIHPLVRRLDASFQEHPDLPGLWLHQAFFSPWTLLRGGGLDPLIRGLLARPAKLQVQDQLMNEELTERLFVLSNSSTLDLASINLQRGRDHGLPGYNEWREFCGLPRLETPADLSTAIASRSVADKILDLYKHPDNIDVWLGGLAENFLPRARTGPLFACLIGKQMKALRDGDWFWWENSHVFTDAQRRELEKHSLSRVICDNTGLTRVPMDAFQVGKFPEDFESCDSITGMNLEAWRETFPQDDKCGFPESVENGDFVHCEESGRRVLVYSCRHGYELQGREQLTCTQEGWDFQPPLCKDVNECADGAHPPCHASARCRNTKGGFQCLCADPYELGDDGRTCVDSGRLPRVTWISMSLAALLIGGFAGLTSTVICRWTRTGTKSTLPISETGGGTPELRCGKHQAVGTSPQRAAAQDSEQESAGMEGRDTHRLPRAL
Experimental: as §1

Myeloperoxidase [1] = target: T2, Myeloperoxidase (Homo sapiens, UniProt P05164); assay: Surface Plasmon Resonance (SPR); conditions: pH 5
T2 sequence (P05164 whole entry): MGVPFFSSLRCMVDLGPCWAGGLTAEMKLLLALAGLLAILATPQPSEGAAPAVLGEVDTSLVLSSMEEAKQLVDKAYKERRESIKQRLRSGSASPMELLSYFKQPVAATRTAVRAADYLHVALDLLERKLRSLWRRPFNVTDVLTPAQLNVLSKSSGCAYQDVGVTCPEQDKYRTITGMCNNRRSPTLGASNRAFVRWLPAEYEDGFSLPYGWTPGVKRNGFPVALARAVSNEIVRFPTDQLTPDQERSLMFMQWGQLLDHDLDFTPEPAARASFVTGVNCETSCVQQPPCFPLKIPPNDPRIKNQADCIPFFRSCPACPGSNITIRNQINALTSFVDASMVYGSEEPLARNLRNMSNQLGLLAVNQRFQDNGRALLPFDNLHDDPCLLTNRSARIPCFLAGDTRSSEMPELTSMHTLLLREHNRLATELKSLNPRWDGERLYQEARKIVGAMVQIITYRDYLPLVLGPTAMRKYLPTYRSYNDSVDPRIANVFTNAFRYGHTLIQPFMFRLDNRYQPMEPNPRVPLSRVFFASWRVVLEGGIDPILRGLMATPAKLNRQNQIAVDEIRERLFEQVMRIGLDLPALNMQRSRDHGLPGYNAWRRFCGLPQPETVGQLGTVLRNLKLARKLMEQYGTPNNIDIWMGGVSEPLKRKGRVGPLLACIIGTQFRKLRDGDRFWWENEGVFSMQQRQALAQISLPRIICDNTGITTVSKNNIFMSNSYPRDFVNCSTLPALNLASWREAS
Experimental: Binding kinetics were determined by surface plasmon resonance (SPR) using a Biacore S51 (Biacore, Uppsala, Sweden). MPO (50 μg/ml dissolved in 10 mM sodium acetate, pH 5.0) was immobilized onto the surface of CM5 sensor chips (Biacore) using surface amine coupling. One of the spots on the sensor surface was left without MPO to control for nonspecific binding. The signal observed in response to analyte binding was as expected linearly related to the amount of immobilized ligand, and 10,000 response units was routinely used to characterize compoundbinding (data not shown). Compounds were dissolved in binding buffer (10 mM HEPES, pH 7.4, 150 mM NaCl, 3 mM Na2EDTA, 0.005% (w/v) surfactant P20, 1% (v/v) DMSO final), and association was assessed during 60-210-s injections. After this time, analyte injection was terminated, and the chip surface was perfused with binding buffer at 30 μl/min for 4-12 min to monitor compound dissociation.

Myeloperoxidase [2] = target: T2, Myeloperoxidase; assay: Myeloperoxidase Assay; conditions: pH 6.5
Experimental: Assays were performed at 22 °C with 2 nM MPO and 10 μM hydrogen peroxide (H2O2) in 20 mM NaH2PO4 buffer, pH 6.5 containing 140 mM NaCl, 10 mM taurine, and 1 mM L-tyrosine. Inhibitor compounds were preincubated with MPO for 15 min prior to the addition of H2O2, and the accumulation of taurine chloramine was determined after 1 min.

SMILES: O=C(NO)c1c[nH]c(NCc2cc(C(F)(F)F)cc(C(F)(F)F)c2)nc1=O [2-(3,5-bistrifluoromethylbenzylamino)-6-oxo-1H-pyrimidine-5-carbohydroxamic acid (HX1)]
- IC50 (Lactoperoxidase): 6300 nM
- IC50 (Thyroid peroxidase): 1590 nM

SMILES: O=C(NO)c1c[nH]c(NCc2ccccc2)nc1=O [2-(benzylamino)-6-oxo-3H-pyrimidine-5-carbohydroxamic acid (HX3)]
- IC50 (Lactoperoxidase): 2000 nM
- IC50 (Thyroid peroxidase): 1590 nM
- Kd (Myeloperoxidase [1]): 2000 nM
- IC50 (Myeloperoxidase [2]): 790 nM

SMILES: O=C(NO)c1ccc(Cc2ccccc2)cc1O [4-benzyl-2-hydroxybenzenecarbohydroxamic acid (HX2)]
- IC50 (Lactoperoxidase): 40 nM
- IC50 (Thyroid peroxidase): 63 nM
- Kd (Myeloperoxidase [1]): 63 nM
- IC50 (Myeloperoxidase [2]): 25.1 nM

SMILES: O=C(NO)c1ccccc1O [Salicylic hydroxamic acid]
- IC50 (Thyroid peroxidase): 2000 nM
- IC50 (Myeloperoxidase [2]): 25000 nM
